Patent publication US8962609B2, “Pyrimidine compounds as inhibitors of protein kinases IKK epsilon and/or TBK-1, processes for their preparation, and pharmaceutical compositions containing them” (Domainex Limited, priority 2010, dated 2015)
Where two headings read alike, the source gives them in different places.

Legend:
Jnk3 = Jnk3 (Homo sapiens (Human), UniProt P53779); assay: Jnk3 radiolabelled P33 ATP assay (Kinase Hotspot Technology); format: biochemical; conditions: for IC50: at the Km for ATP, read-out: Concentration of compounds required for ~ 50% inhibition, Jnk-3
Protocol: (§1) The compounds of examples DMX-1,8,9,14 and 16 were tested for activity against TBK1, IKKβ, Jnk1 and Jnk3 in addition to IKK-ε and TBK-1. TBK-1, IKKβ, Jnk1 and Jnk3 were screened using radiolabelled P^33 ATP using the Kinase Hotspot Technology of Reaction Biology Corp. Screening against Jnk-1 and Jnk-3 was carried out at the Km for ATP. IKK-ε and TBK-1 screening was also carried out as described above at the Km for ATP for these enzymes. […] TBK-1, IKKβ and Jnk1 were screened using radiolabelled P^33 ATP using the Kinase Hotspot Technology of Reaction Biology Corp. IKK-ε and TBK-1 screening was also carried out as described above at the Km for ATP for these enzymes.

IKKε = IKKε (Homo sapiens (Human), UniProt Q14164); assay: IKKε time-resolved fluorescence Lanthascreen kinase inhibition assay; format: biochemical
Protocol: (§2) Compounds of the invention (synthesised as described below) were tested for activity against the IKKε and TBK-1 enzyme as follows:
(§3) Inhibitions studies were performed using a time-resolved fluorescence-based Lanthascreen™ assay. Phosphorylation of a fluorescein-labelled substrate peptide is measured using terbium-labeled phosphospecific antibodies. Terbium is excited at 340 nm and the FRET energy transfer to fluorescein is measured at 495 and 520 nm. The emission ratio between 520 and 495 is a measure of the level of phosphorylation of the substrate by the kinase.
(§4) Kinase inhibition assays (10 μL) were performed at 20° C. in 384-well plate format. Compound IC50 values were determined at the apparent Km for ATP (20 μM) based on a radiometric assay (Invitrogen) using 8 or 10 point curves in duplicate. The final reaction conditions contained 400 nM fluorescein-IkBα substrate ([…]), 20 μM ATP, 2 nM or 8 nM IKKε or TBK1 kinase respectively, and 3% DMSO in kinase assay buffer consisting of 50 mM HEPES (pH 7.5), 10 mM MgCl, 1 mM EGTA, 0.01% Brij-35.
(§5) Compound dilutions were prepared from 10 mM DMSO stocks by dilution into DMSO.
(§6) The kinase phosphorylation assay was initiated by the addition of the kinase and the reaction was allowed to proceed for 1 hr or 2.5 hr for IKKε and TBK-1 kinase respectively. […] The reaction was stopped by the addition of 10 mM EDTA, and phosphorylation was detected after a 1 hr incubation with 1.5 nM terbium-labelled antibody against phosphorylation at Serine 32 on the IkBα[…]peptide, both in TR-FRET dilution buffer (Invitrogen).
(§7) In the data presented for IKKε, <9 μM means having an activity in the range from 300 nM≦9 μM; and <300 nM means having an activity in the range 30 nM≦300 nM; and for the data presented for TBK-1, <3 μM means having an activity in the range 300 nM≦3 μM, and <300 nM means having an activity in the range 30 nM≦300 nM.

IKKβ = IKKβ (Homo sapiens (Human), UniProt O14920); assay: IKKβ radiolabelled P33 ATP assay (Kinase Hotspot Technology); format: biochemical; conditions: for inhibition at 1 µM: read-out: IKK-β percentage inhibition (in brackets); for IC50: single point, read-out: Concentration of compounds required for ~ 50% inhibition, IKK-β
Protocol: as §1

Jnk1 = Jnk1 (Homo sapiens (Human), UniProt P45983); assay: Jnk1 radiolabelled P33 ATP assay (Kinase Hotspot Technology); format: biochemical; conditions: for IC50: read-out: Concentration of compounds required for ~ 50% inhibition, Jnk-1; for inhibition at 1 µM: single point at the concentration (1000 nM), read-out: Jnk-1 percentage inhibition (in brackets)
Protocol: as §1

TBK-1 = TBK-1 (Homo sapiens (Human), UniProt Q9UHD2); assay: biochemical
Protocol: as §2, §3, §4, §5, §6, §7

[1] = 20 μM ATP (apparent Km), 2 nM kinase, 1 hr, values are activity bands, read-out: Inhibition of IKKε IC50
[2] = at the Km for ATP, read-out: Concentration of compounds required for ~ 50% inhibition, IKK-ε
[3] = 20 μM ATP (apparent Km), 8 nM kinase, 2.5 hr, values are activity bands, read-out: Inhibition of TBK-1 IC50
[4] = at the Km for ATP, read-out: Concentration of compounds required for ~ 50% inhibition, TBK-1
[5] = single point at the concentration (1000 nM), 1 μM ATP
[6] = single point at the concentration (1000 nM), 10 μM ATP

Chain of Jnk1 (P45983 whole entry): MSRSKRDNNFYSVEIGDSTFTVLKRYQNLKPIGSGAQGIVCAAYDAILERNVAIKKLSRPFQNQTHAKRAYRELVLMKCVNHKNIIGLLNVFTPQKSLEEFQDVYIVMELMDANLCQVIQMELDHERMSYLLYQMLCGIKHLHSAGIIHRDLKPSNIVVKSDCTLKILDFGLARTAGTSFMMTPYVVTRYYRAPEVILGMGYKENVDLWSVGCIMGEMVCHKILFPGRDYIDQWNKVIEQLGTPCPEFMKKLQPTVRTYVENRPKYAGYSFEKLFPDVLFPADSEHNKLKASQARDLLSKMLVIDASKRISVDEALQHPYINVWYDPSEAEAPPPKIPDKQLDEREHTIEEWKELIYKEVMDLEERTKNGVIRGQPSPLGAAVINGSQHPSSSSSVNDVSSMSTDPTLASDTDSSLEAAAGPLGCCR
Chain of IKKβ (O14920 whole entry): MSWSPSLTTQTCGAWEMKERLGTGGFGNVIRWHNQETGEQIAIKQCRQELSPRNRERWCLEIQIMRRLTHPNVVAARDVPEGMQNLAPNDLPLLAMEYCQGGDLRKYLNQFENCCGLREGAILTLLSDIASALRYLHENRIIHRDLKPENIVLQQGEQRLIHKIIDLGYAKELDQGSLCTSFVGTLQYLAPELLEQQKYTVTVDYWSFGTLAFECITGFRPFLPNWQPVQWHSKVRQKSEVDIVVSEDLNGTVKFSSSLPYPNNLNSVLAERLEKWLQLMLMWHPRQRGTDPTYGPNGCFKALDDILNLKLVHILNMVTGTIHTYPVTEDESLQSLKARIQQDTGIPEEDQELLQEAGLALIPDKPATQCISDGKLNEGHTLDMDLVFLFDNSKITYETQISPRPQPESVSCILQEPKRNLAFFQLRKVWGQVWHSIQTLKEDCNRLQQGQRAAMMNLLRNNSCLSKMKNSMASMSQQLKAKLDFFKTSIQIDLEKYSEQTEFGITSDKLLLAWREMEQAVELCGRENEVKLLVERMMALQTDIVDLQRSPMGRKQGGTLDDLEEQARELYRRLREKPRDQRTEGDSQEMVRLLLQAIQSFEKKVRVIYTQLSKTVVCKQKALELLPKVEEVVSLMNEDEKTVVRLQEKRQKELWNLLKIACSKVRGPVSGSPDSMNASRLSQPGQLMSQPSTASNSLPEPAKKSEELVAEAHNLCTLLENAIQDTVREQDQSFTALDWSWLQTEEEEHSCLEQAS
Chain of Jnk3 (P53779 whole entry): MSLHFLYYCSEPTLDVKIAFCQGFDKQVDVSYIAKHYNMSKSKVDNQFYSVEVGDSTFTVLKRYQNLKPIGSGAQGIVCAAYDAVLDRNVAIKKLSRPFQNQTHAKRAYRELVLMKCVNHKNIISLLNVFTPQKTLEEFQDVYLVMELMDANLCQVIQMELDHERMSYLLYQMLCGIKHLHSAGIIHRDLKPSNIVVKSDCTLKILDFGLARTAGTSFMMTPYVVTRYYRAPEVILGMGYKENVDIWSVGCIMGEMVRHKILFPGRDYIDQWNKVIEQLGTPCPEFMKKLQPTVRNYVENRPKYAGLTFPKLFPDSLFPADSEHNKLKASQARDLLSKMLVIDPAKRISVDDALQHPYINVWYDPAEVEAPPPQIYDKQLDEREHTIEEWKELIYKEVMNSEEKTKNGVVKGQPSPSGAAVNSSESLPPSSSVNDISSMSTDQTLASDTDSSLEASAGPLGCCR
Chain of TBK-1 (Q9UHD2 whole entry): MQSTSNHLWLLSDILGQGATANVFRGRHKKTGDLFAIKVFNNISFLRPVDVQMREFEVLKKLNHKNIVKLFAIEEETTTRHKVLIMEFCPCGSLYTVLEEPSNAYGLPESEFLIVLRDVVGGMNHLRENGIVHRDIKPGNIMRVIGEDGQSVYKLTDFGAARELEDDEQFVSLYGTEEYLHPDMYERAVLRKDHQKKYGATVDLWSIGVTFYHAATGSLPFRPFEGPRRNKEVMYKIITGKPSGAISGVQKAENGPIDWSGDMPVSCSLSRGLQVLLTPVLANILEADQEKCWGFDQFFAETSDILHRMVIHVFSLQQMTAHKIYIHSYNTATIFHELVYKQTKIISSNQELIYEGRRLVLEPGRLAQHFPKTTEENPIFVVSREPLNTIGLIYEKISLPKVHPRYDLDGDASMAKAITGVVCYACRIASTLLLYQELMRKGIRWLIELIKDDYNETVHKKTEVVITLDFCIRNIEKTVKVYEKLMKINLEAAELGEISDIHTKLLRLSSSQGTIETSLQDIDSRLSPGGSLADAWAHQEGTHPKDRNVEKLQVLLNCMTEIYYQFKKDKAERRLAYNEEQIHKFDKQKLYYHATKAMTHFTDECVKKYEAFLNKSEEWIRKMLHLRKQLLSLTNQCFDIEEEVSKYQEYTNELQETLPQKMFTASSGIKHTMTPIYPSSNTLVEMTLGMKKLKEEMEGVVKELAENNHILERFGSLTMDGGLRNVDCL
Chain of IKKε (Q14164 whole entry): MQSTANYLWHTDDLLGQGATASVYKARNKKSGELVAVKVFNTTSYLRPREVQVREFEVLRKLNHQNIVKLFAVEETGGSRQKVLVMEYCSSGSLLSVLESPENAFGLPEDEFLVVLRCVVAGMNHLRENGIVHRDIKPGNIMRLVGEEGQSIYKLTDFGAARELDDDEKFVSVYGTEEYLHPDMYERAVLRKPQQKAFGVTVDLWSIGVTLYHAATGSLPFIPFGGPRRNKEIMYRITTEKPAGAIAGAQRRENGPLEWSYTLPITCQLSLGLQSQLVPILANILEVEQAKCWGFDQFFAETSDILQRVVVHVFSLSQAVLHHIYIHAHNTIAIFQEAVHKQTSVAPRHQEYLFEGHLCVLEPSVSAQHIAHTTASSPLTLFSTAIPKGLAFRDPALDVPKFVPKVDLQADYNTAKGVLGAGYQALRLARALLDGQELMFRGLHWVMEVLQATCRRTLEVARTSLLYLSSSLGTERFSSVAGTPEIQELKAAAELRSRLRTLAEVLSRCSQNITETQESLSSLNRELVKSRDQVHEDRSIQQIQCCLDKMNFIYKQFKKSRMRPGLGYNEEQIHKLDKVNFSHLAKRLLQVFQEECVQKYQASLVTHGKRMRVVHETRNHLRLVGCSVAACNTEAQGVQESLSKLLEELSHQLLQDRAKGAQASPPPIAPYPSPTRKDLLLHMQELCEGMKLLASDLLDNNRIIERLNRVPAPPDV

Row | Structure (SMILES) | IC50 (Jnk3) | IC50 (IKKε; [1]) | IC50 (IKKε; [2]) | inhibition at 1 µM (IKKβ) | IC50 (IKKβ; 1 μM ATP) | IC50 (Jnk1; at the Km for ATP) | IC50 (TBK-1; [3]) | IC50 (TBK-1; [4]) | inhibition at 1 µM (IKKβ; [5]) | inhibition at 10 µM (Jnk3; at the printed concentration (10000 nM), Km for ATP, read-out: Jnk-3 percentage inhibition (in brackets)) | inhibition at 1 µM (IKKβ; [6]) | IC50 (IKKβ; 10 μM ATP) | inhibition at 1 µM (Jnk1; 10 μM ATP) | IC50 (Jnk1; single point, 10 μM ATP)
1 | N#Cc1cc(-c2ccnc(Nc3cccc(C(N)=O)c3)n2)ccc1N1CCCC1 [DMX-1, 3-[4-(3-cyano-4-pyrrolidin-1-yl-phenyl)-pyrimidin-2-ylamino]-benzamide] | > 10000 nM | < 30 nM | 2 nM | 48% | 1000 nM | 254 nM | < 30 nM | 4 nM |  |  |  |  |  | 
2 | N#Cc1cc(-c2ccnc(Nc3ccc(C(N)=O)cc3)n2)ccc1N1CCCC1 [DMX-8] | > 10000 nM | < 30 nM | 3 nM |  | 1000 nM | 354 nM | < 30 nM | 3 nM | 50% |  |  |  |  | 
3 | CC(=O)Nc1ccc(Nc2nccc(-c3ccc(N4CCCC4)c(C#N)c3)n2)cc1 [DMX-9] | 10000 nM | < 30 nM | 3 nM |  | 1000 nM | 262 nM | < 30 nM | 3 nM | 34% | 51% |  |  |  | 
4 | N#Cc1cc(-c2ccnc(Nc3ccc4c(c3)CC(=O)N4)n2)ccc1N1CCCC1 [DMX-14] | > 10000 nM | < 30 nM | 3 nM |  | 1000 nM | 201 nM | < 30 nM | 2 nM | 45% |  |  |  |  | 
5 | N#Cc1cc(-c2ccnc(Nc3ccc(N4CCOCC4)nc3)n2)ccc1N1CCCC1 [DMX-16] | > 10000 nM | < 30 nM | 2 nM |  | 1000 nM | 222 nM | < 30 nM | 1 nM | 43% |  |  |  |  | 
6 | Cn1cc(Nc2nccc(-c3ccc(N4CCCC4)c(C#N)c3)n2)cn1 [DMX-56] |  | < 30 nM | 8 nM |  |  |  | < 30 nM | 3 nM |  |  | 56% | 1000 nM | 21% | > 1000 nM
7 | CC(=O)Nc1ccc(Nc2nccc(-c3ccc(N4CC(O)C4)c(C#N)c3)n2)cn1 [DMX-66] |  | < 30 nM | 21 nM |  |  |  | < 30 nM | 24 nM |  |  | 43% | 1000 nM | 52% | 1000 nM
8 | CN(C)CCNc1ccc(Nc2nccc(-c3ccc(N4CC[C@H](F)C4)c(C#N)c3)n2)cn1 [DMX-69] |  | < 30 nM | 4 nM |  |  |  | < 30 nM | 4 nM |  |  | 54% | 1000 nM | 43% | 1000 nM
9 | CN1CCC(Nc2ccc(Nc3nccc(-c4ccc(N5CC[C@H](F)C5)c(C#N)c4)n3)cn2)CC1 [DMX-78] |  | < 30 nM |  |  |  |  | < 30 nM |  |  |  |  |  |  | 
10 | CN1CCC(Nc2ccc(Nc3nccc(-c4ccc(N5CC[C@H](O)C5)c(C#N)c4)n3)cn2)CC1 [DMX-79] |  | < 30 nM |  |  |  |  | < 30 nM |  |  |  |  |  |  | 
11 | CN1CCC(Nc2ccc(Nc3nccc(-c4ccc(N5CCC(F)(F)C5)c(C#N)c4)n3)cn2)CC1 [DMX-80] |  | < 30 nM |  |  |  |  | < 30 nM |  |  |  |  |  |  | 
